Results: ChEMBL document CHEMBL5241104, “Reactive metabolites of the anticonvulsant drugs and approaches to minimize the adverse drug reaction” (Eur J Med Chem, 2021)

What was measured:
Rattus norvegicus [1] = assay: Anticonvulsant activity in Sprague-Dawley rat assessed as protection against maximal electroshock induced seizure at po administration; format: functional
Rattus norvegicus [2] = assay: Anticonvulsant activity in Sprague-Dawley rat assessed as protection against maximal electroshock induced seizure at po administrated for 30 mins; format: functional; settings: 0.5 h
Rattus norvegicus [3] = assay: Anticonvulsant activity in Sprague-Dawley rat assessed as protection against Sc-Met induced seizure at po administrated for 30 mins; format: functional; settings: 0.5 h
Rattus norvegicus [4] = assay: Anticonvulsant activity in Sprague-Dawley rat assessed as protection against maximal electroshock induced seizure at ip administration for 0.25 hrs; format: functional
Rattus norvegicus [5] = assay: Anticonvulsant activity in Sprague-Dawley rat assessed as protection against hippocampal kindling induced seizure at ip administration for 0.25 hrs; format: functional
Mus musculus [6] = assay: Anticonvulsant activity in mouse assessed as protection against 6-Hz induced seizure at ip administration upto 2 hrs; format: functional
Mus musculus [7] = assay: Anticonvulsant activity in Albino mouse assessed as protection against Sc-PTZ induced seizure at ip administration for 30 mins; format: functional; settings: 0.5 h
[8] = Neurotoxicity in CD-1 mouse assessed as lethal dose at po administration for 30 mins; format: toxicity, organism-based; settings: in vivo
Mus musculus [9] = assay: Anticonvulsant activity in CD-1 mouse assessed as protection against maximal electroshock induced seizure at po administration for 30 mins; format: functional; settings: CD-1, 0.5 h
Mus musculus [10] = assay: Anticonvulsant activity in CD-1 mouse assessed as protection against PTZ induced seizure at po administration for 30 mins; format: functional; settings: CD-1, 0.5 h
[11] = Neurotoxicity in CD-1 mouse assessed as reduction in locomotor activity at 600 mg/kg,po administrated for 30 mins; format: toxicity, organism-based; set-up: scale not given: the % may be the effect or the level left; settings: in vivo, 0.5 h
Mus musculus [12] = assay: Anticonvulsant activity in CD-1 mouse assessed as recovery time against maximal electroshock induced seizure at 300 mg/kg,po administrated for 30 mins; format: functional; settings: 0.5 h
Mus musculus [13] = assay: Anticonvulsant activity in CD-1 mouse assessed as recovery time against maximal electroshock induced seizure at 600 mg/kg,po administrated for 30 mins; format: functional; settings: 0.5 h
[14] = Neurotoxicity in CD-1 mouse assessed as reduction in locomotor activity at 300 mg/kg,po administrated for 30 mins; format: toxicity, organism-based; set-up: scale not given: the % may be the effect or the level left; settings: in vivo, 0.5 h
Mus musculus [15] = assay: Anticonvulsant activity in CD-1 mouse assessed as recovery time against maximal electroshock induced seizure at 150 mg/kg,po administrated for 30 mins; format: functional; settings: 0.5 h
Mus musculus [16] = assay: Anticonvulsant activity in Albino Swiss CD-1 mouse assessed as protection against maximal electroshock induced seizure at 100 mg/kg,ip administration; format: functional
Mus musculus [17] = assay: Anticonvulsant activity in Albino Swiss CD-1 mouse assessed as protection against Sc-Met induced seizure at 100 mg/kg,ip administration; format: functional
[18] = Protective index, ratio of TD50 for toxicity in Wistar rat assessed as median toxicity dose at po administration for 8 hrs by rotorod test to ED50 for anticonvulsant activity in Wistar rat assessed as protection against maximal electroshock induced seizure at po administration for 8 hrs; format: organism-based; settings: in vivo, read-out: Ratio TD50/ED50
Rattus norvegicus [19] = assay: Anticonvulsant activity in Wistar rat assessed as protection against maximal electroshock induced seizure at po administration for 4 hrs; format: functional
Rattus norvegicus [20] = assay: Anticonvulsant activity in Wistar rat assessed as protection against maximal electroshock induced seizure at po administration for 2 hrs; format: functional
[21] = Protective index, ratio of TD50 for toxicity in Wistar rat assessed as median toxicity dose at po administration for 2 hrs by rotorod test to ED50 for anticonvulsant activity in Wistar rat assessed as protection against maximal electroshock induced seizure at po administration for 2 hrs; format: organism-based; settings: in vivo, read-out: Ratio TD50/ED50
Rattus norvegicus [22] = assay: Anticonvulsant activity in Wistar rat assessed as protection against maximal electroshock induced seizure at po administration for 8 hrs; format: functional
[23] = Protective index, ratio of TD50 for toxicity in Wistar rat assessed as median toxicity dose at po administration for 4 hrs by rotorod test to ED50 for anticonvulsant activity in Wistar rat assessed as protection against maximal electroshock induced seizure at po administration for 4 hrs; format: organism-based; settings: in vivo, read-out: Ratio TD50/ED50
[24] = Displacement of 3[H]BTX from rat brain membrane voltage-sensitive sodium channel incubated for 1.5 hrs by scintillation counting analysis; format: cell membranes
[25] = Protective index, ratio of TD50 for toxicity in Sprague-Dawley rat assessed as median toxicity dose at ip administration by rotorod test to ED50 for anticonvulsant activity in Sprague-Dawley rat assessed as protection against maximal electroshock induced seizure at ip administration; format: organism-based; settings: in vivo, read-out: Ratio TD50/ED50

Question: For `O=C1NC(c2ccccc2)(C2CC2)C(=O)N1CN1CCN(c2ccccc2)CC1` (stereo unspecified), which ED50 (Rattus norvegicus [1]) is on record?
Answer: 5.29 mg/kg

Question: For `Cc1cc(C(=O)Nc2c(C)cccc2C)no1`, which ED50 (Rattus norvegicus [2]) is on record?
Answer: 5.5 mg/kg

Question: And the ED50 (Rattus norvegicus [3])?
Answer: > 250 mg/kg

Question: With `CCCC(CCC)C(=O)OCCN(C)C` as the compound, how does the ED50 (Rattus norvegicus [4]) read?
Answer: 73 mg/kg

Question: And the ED50 (Rattus norvegicus [5])?
Answer: 168 mg/kg

Question: With `CCCC(COC(=O)Nc1ccc(S(N)(=O)=O)cc1)C(C)CC` (stereo unspecified) as the compound, how does the ED50 (Mus musculus [6]) read?
Answer: 74 mg/kg

Question: For `O=C1Nc2ccc(Cl)cc2C(c2ccccc2)=NC1/N=N/c1ccc([N+](=O)[O-])cc1` (stereo unspecified), which Activity (Mus musculus [7]) is on record?
Answer: 100%

Question: Which LD50 at 0.5 h [8] does the source give for `CCCC(CCC)C(=O)Nc1ccccc1O` here?
Answer: 937 mg/kg

Question: And the ED50 (Mus musculus [9])?
Answer: 370 mg/kg

Question: And the ED50 (Mus musculus [10])?
Answer: 348 mg/kg

Question: And the Activity [11]?
Answer: 2.78%

Question: And the Time (Mus musculus [12])?
Answer: 30.66 s

Question: What about the Time (Mus musculus [13]) of the same compound?
Answer: 5.75 s

Question: What about the Activity [14] of the same compound?
Answer: 60%

Question: And the Time (Mus musculus [15])?
Answer: 93.26 s

Question: Which Activity (Mus musculus [16]) does the source give for `Cl.Cl.O=C1CC(c2ccccc2)(c2ccccc2)CN1CN1CCN(c2ccccc2)CC1` here?
Answer: 25%

Question: What about the Activity (Mus musculus [17]) of the same compound?
Answer: 25%

Question: Which selectivity ratio at 8 h [18] does the source give for `NC(=O)N1c2ccccc2C/C(=N/O)c2ccccc21` here?
Answer: > 117

Question: What about the ED50 (Rattus norvegicus [19]) of the same compound?
Answer: 20 mg/kg

Question: And the ED50 (Rattus norvegicus [20])?
Answer: 12 mg/kg

Question: What about the selectivity ratio at 2 h [21] of the same compound?
Answer: > 166

Question: And the ED50 (Rattus norvegicus [22])?
Answer: 17 mg/kg

Question: And the selectivity ratio at 4 h [23]?
Answer: > 100

Question: And the IC50 [24]?
Answer: 418 µM

Question: For `CCCC(CCC)C(=O)NCCN(C)C`, which ED50 (Rattus norvegicus [4]) is on record?
Answer: 38.6 mg/kg

Question: And the selectivity ratio [25]?
Answer: 1.8
